Patent US11628151B2, “N,N-bis-2-mercaptoethyl isophthalamide for the treatment of neurodegenerative diseases” (EMERAMED LIMITED, priority 2014, dated 2023)

Assays:
TNF-α = assay: Primary microglia activation (TNF-α release, ELISA) following Aβ42 administration; format: cell-based; conditions: FIG. 2A
Protocol: (§1) Aβ42 stock was solubilized in DMSO at a concentration of 2 mM, vortexed and sonicated for 2 minutes to ensure complete dissolution. Aβ42 was diluted in 50 mM NaPi, 100 mM NaCl (pH 7.4) buffer at a concentration of 200 μM and was used within 3 hours at a final concentration of 200 nM.
(§2) After 10 days' incubation, neurons were used in experiments. Where indicated, cells were pre-treated for 30 minutes with NBMI (10 nM) added directly to the cell culture medium.
(§3) TNF-α secretion from primary microglia and the BV2 cell line was valued by a specific sandwich-type enzyme-linked immunoabsorbent assay (ELISA) (Duoset, R&D system) according to the manufacturer's instructions. Intracellular concentration of Aβ42 was measured using a specific sandwich-type ELISA assay (human Aβ42 kit, Invitrogen, KHB3441 and mouse/rat, IBL 27721; Immuno-Biological Laboratories Co., Ltd., Japan) according to the manufacturer's instructions.

microglia = assay: Internalization of Aβ42 by microglia; format: cell-based; conditions: following Aβ42 administration; FIG. 2B
Protocol: as §1, §3
N9 cells were treated with 200 nM Aβ42488 (Anaspect), and AR internalization was recorded in culture for 24 hours after AR administration using a CelIR microscope, with the image processed using CelIR software.

Aβ42 = target: T1, Aβ42 (Homo sapiens, UniProt P05067); assay: Aggregation state of Aβ42 in media and cell lysate of primary microglia cultures (ELISA); format: cell-based; conditions: in the media and in the cell lysate, FIG. 3
T1 construct: Aβ42 stock was solubilized in DMSO at a concentration of 2 mM; host or cells: added to primary microglia cultures
T1 sequence (P05067 672-713 limits assumed): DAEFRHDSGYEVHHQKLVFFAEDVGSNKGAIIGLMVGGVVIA
Protocol: Aβ42 stock was solubilized in DMSO at a concentration of 2 mM, vortexed and sonicated for 2 minutes to ensure complete dissolution. Aβ42 was diluted in 50 mM NaPi, 100 mM NaCl (pH 7.4) buffer at a concentration of 200 μM and was used within 3 hours at a final concentration of 200 nM. TNF-α secretion from primary microglia and the BV2 cell line was valued by a specific sandwich-type enzyme-linked immunoabsorbent assay (ELISA) (Duoset, R&D system) according to the manufacturer's instructions. Intracellular concentration of Aβ42 was measured using a specific sandwich-type ELISA assay (human Aβ42 kit, Invitrogen, KHB3441 and mouse/rat, IBL 27721; Immuno-Biological Laboratories Co., Ltd., Japan) according to the manufacturer's instructions. Homogenization was performed with a cold 4× volume of PBS supplemented with the 1× protease inhibitor cocktail, followed by the addition of a solution 8.2 M guanidine/82 mM Tris HCl (pH 8.0) to yield a solution with a 5M final guanidine concentration.

[1] = tested on: primary neurons incubated with oligomeric Aβ42; assay: Aβ42-induced cell death in primary neurons co-cultured with N9 cells (MTT viability); format: cell-based, mice; conditions: primary neurons incubated with oligomeric Aβ42 (200 nM), NBMI 10 nM pre-treatment 30 minutes, FIG. 1
Protocol: as §1
Primary cultures of cortical neurons were prepared from the cerebral cortex of mice at embryonic stage 17 (E17). The cells from each cortex were seeded separately on poly-L-ornithine (Sigma) pre-coated 6-well plates at a density of 0.25×10^6 cells/cm^2 in Neurobasal media containing B27 supplement with antioxidant, 1% penstrep and 1% glutamine.
as §2
To determine cell viability, cells were washed with PBS (pH 7.4). MTT solution (3-(4,5-dimethylthiazol-2yl)-2,5-diphenyl tetrazolium bromide) was added to cells for 30 minutes at 37° C. After three washes, the insoluble formazan product was dissolved in dimethyl sulfoxide. The optical density of each culture well was then measured using a micro-plate reader (Molecular Probes, Garching, Germany) at 550 nm. The optical density of formazan formed in control cells was taken as 100% of viability. […]

A549 and BEAS-2B cells = assay: Particle-induced secretion of pro-inflammatory cytokines in lung epithelial cell lines (overall); format: cell-based
Protocol: Secretion of the pro-inflammatory cytokines interleukin (IL)-6, IL-8 (as well as GM-CSF and MCP-1) into cell media in response to particle exposure was measured in A549 and BEAS-2B cells using the following method.
Lung epithelial cells were seeded at 5×10^4 in 24-well plates. After pre-incubation with NBMI, the antioxidant compound, N-acetyl-L-cysteine (NAC), which was used as a positive control, or vehicle, for 3 hours the medium was removed.
Fresh media containing various particles (as below) in different concentrations was in a total volume of 0.5 ml for an additional 24 hours. The supernatants were then separated from the cells by centrifugation.
IL-8, IL-6, GM-CSF and MCP-1 were measured in the cell free fluid using the DuoSet ELISA Development kit (R&D Systems, Abingdon, UK) according to manufacturer's protocol.
Exposure to medium only served as negative control. Each experiment was performed twice with 4 replicates.
The effect of pre-incubation with 50 μM NBMI on particle-induced cytokine formation was tested at various concentrations of particles.

## O=C(NCCS)c1cccc(C(=O)NCCS)c1 [NBMI, N,N-bis-2-mercaptoethyl isophthalamide]
TNF-α
  primary microglia activation (evaluated as TNF-α release): blocked
microglia
  internalization of Aβ42 by microglia: modulated
Aβ42
  aggregation state of Aβ42: changed
[1]
  Aβ42-induced cell death: reduced
A549 and BEAS-2B cells; both cell lines (A549, BEAS-2B), pre-incubation with 50 μM NBMI
  particle-induced secretion of pro-inflammatory cytokines: can reduce

## CC(=O)N[C@@H](CS)C(=O)O [NAC, N-acetyl-L-cysteine, reference compound]
A549 and BEAS-2B cells; pre-incubation with 5 mM NAC (positive control)
  secretion of inflammatory cytokines: effective in reducing
